In patent US20100240657A1, “CHEMICAL COMPOUNDS” (BOEHRINGER INGELHEIM INTERNATIONAL GMBH, priority 2007, published 2010):

Experiments:
B-Raf (V600E) = B-Raf (V600E) (Homo sapiens, UniProt P15056, V600E); assay: Kinase test B-Raf (V600E); format: biochemical; conditions: 250 μM ATP, MEK1 substrate; read-out: IC50 value, B-Raf (V600E) inhibition test
Protocol: In a dilution series, 10 μL aliquots of test substance solution are placed in a multiwell plate. The dilution series is selected so as to cover a range of concentrations from 2 μM to 0.128 or 0.017 nM. If necessary the initial concentration is changed from 2 μM to 10 or 0.4 μM and further dilution is carried out accordingly. The final concentration of DMSO is 5%. 10 μL of the B-Raf (V600E) kinase solution are pipetted in (containing 2.5 ng B-Raf (V600E)-kinase in 20 mM TrisHCl pH 7.5, 0.1 mM EDTA, 0.1 mM EGTA, 0.286 mM sodium orthovanadate, 10% glycerol, 1 mg/mL bovine serum albumin, 1 mM dithiothreitol) and incubated for 1 h at RT with agitation. The kinase reaction is started by the addition of 20 μL ATP solution [final concentration: 250 μM ATP, 30 mM Tris-HCl pH 7.5, 0.02% Brij, 0.2 mM sodium-orthovanadate, 10 mM magnesium acetate, phosphatase cocktail (Sigma, #P2850, dilution recommended by the manufacturer), 0.1 mM EGTA] and 10 μL MEK1 solution [containing 50 ng biotinylated MEK1 (prepared from purified MEK1 according to standard procedure, e.g. with reagent EZ-Link Sulfo-NHS-LC-Biotin, Pierce, #21335) in 50 mM Hepes pH 7.5, 150 mM NaCl, 10% glycerol, 0.02% Brij-35, 0.2 mM PMSF, 0.2 mM benzamidine] and carried out for 60 min at RT with constant agitation. The reaction is stopped by the addition of 12 μL of a 100 mM EDTA solution and incubated for a further 5 min. 55 μL of the reaction solution are transferred into a streptavidine-coated plate (e.g. Streptawell HighBond, Roche, #11989685001) and shaken gently for 1 h at RT, in order to bind biotinylated MEK1 to the plate. After removal of the liquid the plate is washed five times with 200 μL of 1×PBS, and 100 μL solution of primary antibody plus europium-labelled secondary antibody [Anti Phospho-MEK (Ser217/221), Cell Signaling #9121 and Eu-N1 labeled goat-anti-rabbit antibody, Perkin Elmer #AD01015], the primary antibody is diluted 1:2000 and the secondary antibody is added to 0.4-0.5 μg/mL diluted in Delfia Assay Buffer (Perkin Elmer, #1244-111). After 1 h agitation at RT the solution is poured away and washed five times with 200 μL Delfia Wash Buffer (Perkin Elmer #4010-00101244-114). After the addition of 200 μL Enhancement Solution (Perkin Elmer #4001-00101244-105) the preparation is shaken for 10 min at RT and then measured in a Wallac Victor using the programme “Delfia Time Resolved Fluorescence (Europium)”.
IC50 values are determined from these dosage-activity curves using the software programme (GraphPadPrizm).

SK-MEL28 cells = assay: Inhibition of proliferation on cultivated human melanoma cells (SK-MEL28), AlamarBlue; format: cell-based; conditions: SK-MEL-28, SK-MEL28, 72 hours incubation, read-out: EC50 value, cellular SK-MEL28 assay
Protocol: (§1) To measure proliferation on cultivated human tumour cells, cells of melanoma cell line SK-MEL28 [American Type Culture Collection (ATCC)] are cultivated in MEM medium, supplemented with 10% foetal calf serum, 2% sodium bicarbonate, 1 mM sodium pyruvate, 1% non-essential amino acids (e.g. from Cambrex, #BE13-114E) and 2 mM glutamine. SK-MEL28 cells are placed in 96-well flat-bottomed plates at a density of 2500 cells per well in supplemented MEM medium (see above) and incubated overnight in an incubator (at 37° C. and 5% CO2). The active substances are added to the cells in various concentrations so as to cover a range of concentrations from 50 μM to 3.2 nM. If necessary the initial concentration is changed from 50 μM to 10 μM or 2 μM and further dilution (to 0.6 nM or 0.12 nM) is carried out accordingly. After a further 72 hours incubation, 20 μl AlamarBlue reagent (Serotec Ltd., #BUF012B) is added to each well, and the cells are incubated for a further 3-6 hours. The colour change of the AlamarBlue reagent is determined in a fluorescence spectrophotometer (e.g. Gemini, Molecular Devices). EC50 values are calculated using the software programme (GraphPadPrizm).

A375 cells = assay: Inhibition of proliferation on cultivated human melanoma cells (A375), AlamarBlue; format: cell-based; conditions: A-375, A375, method as for SK-MEL28, read-out: EC50 value, cellular A375 assay
Protocol: as §1
To measure proliferation on cultivated human tumour cells, cells of melanoma cell line A375 [American Type Culture Collection (ATCC)] are cultivated in MEM medium, supplemented with 10% foetal calf serum and 2% sodium bicarbonate. Test substances are tested on A375 cells according to the method described for SK-MEL28 cells (see above).

B-Raf (V600E), sequence (P15056 whole entry V600E): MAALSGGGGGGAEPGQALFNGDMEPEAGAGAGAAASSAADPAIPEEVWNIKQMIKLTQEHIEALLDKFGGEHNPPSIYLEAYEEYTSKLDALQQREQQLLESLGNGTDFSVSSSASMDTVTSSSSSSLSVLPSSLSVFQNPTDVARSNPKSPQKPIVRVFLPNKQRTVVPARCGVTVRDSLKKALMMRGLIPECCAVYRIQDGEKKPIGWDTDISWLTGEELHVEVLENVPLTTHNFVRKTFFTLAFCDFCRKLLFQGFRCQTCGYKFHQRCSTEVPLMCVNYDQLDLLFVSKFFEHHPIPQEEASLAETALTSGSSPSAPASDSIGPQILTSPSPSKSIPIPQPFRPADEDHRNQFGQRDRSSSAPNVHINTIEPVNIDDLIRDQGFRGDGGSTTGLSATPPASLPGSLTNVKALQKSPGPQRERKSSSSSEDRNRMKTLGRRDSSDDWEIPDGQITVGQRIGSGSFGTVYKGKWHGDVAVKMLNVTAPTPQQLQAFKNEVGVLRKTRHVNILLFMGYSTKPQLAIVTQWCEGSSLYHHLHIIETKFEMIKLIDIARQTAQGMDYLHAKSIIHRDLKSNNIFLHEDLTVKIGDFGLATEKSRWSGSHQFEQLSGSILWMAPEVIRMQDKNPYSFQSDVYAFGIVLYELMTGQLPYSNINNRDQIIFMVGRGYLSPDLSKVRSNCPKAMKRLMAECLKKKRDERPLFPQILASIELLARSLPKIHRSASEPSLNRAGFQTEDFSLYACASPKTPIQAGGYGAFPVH

IC50 (B-Raf (V600E))	EC50 (SK-MEL28 cells)	EC50 (A375 cells)	SMILES
< 0.5 µM	< 5 µM	< 5 µM	COc1c(NC(=O)c2ccc(C)c(-c3nc(-c4cccnc4)no3)c2)cc(C(C)(C)C)cc1NS(C)(=O)=O [Example 3a]
	< 5 µM	< 5 µM	Cc1ccc(C(=O)Nc2cc(C(C)(C)C)on2)cc1-c1c[nH]c(-c2cccnc2)n1 [Example 6c]
	< 5 µM	< 5 µM	COC(=O)c1cncc(-n2cc(-c3cc(C(=O)Nc4cc(C(C)(C)C)cc(NS(C)(=O)=O)c4OC)ccc3C)nn2)c1 [Example 1a]
< 0.5 µM	< 5 µM	< 5 µM	Cc1ccc(C(=O)Nc2cc(C(C)(C)C)n[nH]2)cc1-c1csc(-c2cccnc2)n1 [Example 5b-a]
< 0.5 µM			Cc1ccc(C(=O)Nc2ccc(Cl)c(C(F)(F)F)c2)cc1-c1csc(-c2cccnc2)n1 [Example 5b-b]
< 0.5 µM		< 5 µM	Cc1ccc(C(=O)Nc2ccc(Cl)c(C(F)(F)F)c2)cc1-c1noc(-c2cccnc2)n1 [Example 2b]
< 0.5 µM		< 5 µM	COc1c(NC(=O)c2ccc(C)c(-c3noc(-c4cccnc4)n3)c2)cc(C(C)(C)C)cc1NS(C)(=O)=O [Example 2a]
